Results from article PMC8156604, “Development of Phosphodiesterase–Protein-Kinase Complexes as Novel Targets for Discovery of Inhibitors with Enhanced Specificity” (International Journal of Molecular Sciences, 2021).

Tests used:
RegA–RD complex = biological target: T1, RegA–RD complex (Dictyostelium discoideum, UniProt P05987+Q23917); details: cGMP 250 µM added to preformed 2fc-RD–RegA complex
T1 construct: gene pkaR
T1 sequence (P05987 1-327): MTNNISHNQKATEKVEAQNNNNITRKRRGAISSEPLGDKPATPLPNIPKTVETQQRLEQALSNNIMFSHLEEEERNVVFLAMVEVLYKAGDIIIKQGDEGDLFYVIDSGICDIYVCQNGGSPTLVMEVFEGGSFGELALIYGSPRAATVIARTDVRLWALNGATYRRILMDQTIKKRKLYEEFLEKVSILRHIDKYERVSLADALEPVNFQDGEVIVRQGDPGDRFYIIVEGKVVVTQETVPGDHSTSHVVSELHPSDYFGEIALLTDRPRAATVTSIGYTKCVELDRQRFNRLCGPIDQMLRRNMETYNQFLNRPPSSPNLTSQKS
T1 sequence (Q23917 1-793): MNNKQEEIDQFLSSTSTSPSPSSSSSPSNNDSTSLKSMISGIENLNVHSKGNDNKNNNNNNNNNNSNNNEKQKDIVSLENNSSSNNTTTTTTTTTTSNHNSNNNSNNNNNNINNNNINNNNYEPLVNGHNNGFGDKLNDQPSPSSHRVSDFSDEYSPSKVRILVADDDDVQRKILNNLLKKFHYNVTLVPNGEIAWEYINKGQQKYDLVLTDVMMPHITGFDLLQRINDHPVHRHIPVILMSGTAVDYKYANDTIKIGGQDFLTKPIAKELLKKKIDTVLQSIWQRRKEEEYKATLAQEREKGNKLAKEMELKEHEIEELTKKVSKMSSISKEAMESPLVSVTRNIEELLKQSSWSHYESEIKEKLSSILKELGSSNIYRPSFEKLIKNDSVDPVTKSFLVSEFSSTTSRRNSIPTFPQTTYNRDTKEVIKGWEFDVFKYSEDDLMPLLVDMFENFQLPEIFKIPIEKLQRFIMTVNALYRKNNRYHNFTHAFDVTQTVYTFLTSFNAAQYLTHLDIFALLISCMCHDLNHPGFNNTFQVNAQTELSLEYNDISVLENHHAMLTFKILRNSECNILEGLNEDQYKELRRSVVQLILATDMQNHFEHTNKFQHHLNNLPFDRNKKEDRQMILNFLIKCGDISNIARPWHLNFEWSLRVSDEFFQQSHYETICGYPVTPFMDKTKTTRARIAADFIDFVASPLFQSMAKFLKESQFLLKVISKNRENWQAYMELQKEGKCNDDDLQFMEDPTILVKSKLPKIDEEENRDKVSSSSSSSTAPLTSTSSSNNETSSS

PDE5–PKG complex = biological target: T2, PDE5–PKG complex (Homo sapiens, UniProt O76074); details: PDE5 with cGMP 100 µM, added to 2fg-PKG
T2 construct: gene PDE5A

## Nc1nc2c(ncn2[C@@H]2O[C@@H]3COP(=O)(O)O[C@H]3[C@H]2O)c(=O)[nH]1 [cGMP]
RegA–RD complex
  fluorescence polarization, displacement of 2fluo-cAMP: addition of cGMP (lilac plot) resulted in only a partial decrease in FP
PDE5–PKG complex
  fluorescence polarization, 2fluo-cGMP-bound PKG probe: suggestive of processive hydrolysis of cGMP by PDE5–PKG composite site
